Reference: BindingDB's records for doi:10.1016/j.chembiol.2004.02.012 (Triad Therapeutics, 2004)

Tests used:
Assay in all cases: Steady-State Inhibition Assay
Settings in all cases: pH 7.4
[1] = molecular target: T1, 1-deoxy-D-xylulose 5-phosphate reductoisomerase (Escherichia coli (strain K12), UniProt P45568)
T1 sequence (P45568 whole entry): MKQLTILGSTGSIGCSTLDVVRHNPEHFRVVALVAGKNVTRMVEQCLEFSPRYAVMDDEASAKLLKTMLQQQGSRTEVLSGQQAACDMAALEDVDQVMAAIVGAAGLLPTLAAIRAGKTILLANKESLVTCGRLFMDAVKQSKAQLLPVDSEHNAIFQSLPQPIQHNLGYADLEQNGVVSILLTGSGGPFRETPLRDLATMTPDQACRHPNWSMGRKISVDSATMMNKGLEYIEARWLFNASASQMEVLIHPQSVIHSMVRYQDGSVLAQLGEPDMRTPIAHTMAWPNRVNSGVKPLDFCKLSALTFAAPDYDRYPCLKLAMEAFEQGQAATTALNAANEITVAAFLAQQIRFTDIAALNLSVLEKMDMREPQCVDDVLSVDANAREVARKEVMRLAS
Source text: (§1) All reactions were monitored spectrophotometrically at 340 nm by using initial rates from the first 5% of reaction.

[2] = molecular target: 4-hydroxy-tetrahydrodipicolinate reductase (Escherichia coli (strain K12), UniProt P04036)
4-hydroxy-tetrahydrodipicolinate reductase, sequence (P04036 whole entry): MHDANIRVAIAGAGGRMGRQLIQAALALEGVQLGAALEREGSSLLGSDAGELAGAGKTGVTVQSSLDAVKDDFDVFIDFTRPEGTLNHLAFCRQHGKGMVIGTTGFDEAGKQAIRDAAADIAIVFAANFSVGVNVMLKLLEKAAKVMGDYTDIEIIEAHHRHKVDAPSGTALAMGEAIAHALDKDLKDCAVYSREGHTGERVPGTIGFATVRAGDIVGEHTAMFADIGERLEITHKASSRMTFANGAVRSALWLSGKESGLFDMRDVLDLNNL
Source text: as §1

[3] = molecular target: T2, Quinone-dependent D-lactate dehydrogenase (Escherichia coli (strain K12), UniProt P06149)
T2 sequence (P06149 whole entry): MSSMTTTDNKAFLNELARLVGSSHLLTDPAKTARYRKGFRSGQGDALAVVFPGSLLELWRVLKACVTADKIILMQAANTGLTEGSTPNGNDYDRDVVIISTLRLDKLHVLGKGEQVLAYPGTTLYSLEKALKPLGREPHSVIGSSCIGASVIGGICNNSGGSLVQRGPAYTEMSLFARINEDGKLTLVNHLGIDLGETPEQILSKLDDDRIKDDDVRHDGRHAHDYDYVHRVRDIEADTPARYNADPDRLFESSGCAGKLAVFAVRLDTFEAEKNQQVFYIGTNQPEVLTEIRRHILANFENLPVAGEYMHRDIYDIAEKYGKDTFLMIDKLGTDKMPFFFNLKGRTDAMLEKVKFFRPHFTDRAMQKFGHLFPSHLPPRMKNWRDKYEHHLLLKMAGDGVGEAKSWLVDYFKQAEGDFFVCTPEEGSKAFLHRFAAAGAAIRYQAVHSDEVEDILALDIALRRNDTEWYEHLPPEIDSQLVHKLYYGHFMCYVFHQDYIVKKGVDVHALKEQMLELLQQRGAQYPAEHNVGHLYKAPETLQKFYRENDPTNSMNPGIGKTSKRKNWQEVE
Source text: as §1

SMILES: O=C(O)CN1C(=O)/C(=C/c2ccc(O)c(O)c2)SC1=S [Bi-ligand, 1]
- Ki [1]: > 50 µM
- Ki [2]: 0.026 µM
- Ki [3]: 55 µM

SMILES: O=C(CCCCN1C(=O)/C(=C/c2ccc(O)c(O)c2)SC1=S)NCc1ccc(Cl)c(Cl)c1 [Bi-ligand, 2]
- Ki [1]: 10 µM
- Ki [2]: > 50 µM
- Ki [3]: 0.042 µM

SMILES: Cc1ccc(Oc2ccc(NC(=O)CN3C(=O)/C(=C/c4ccc(O)c(O)c4)SC3=S)cc2)cc1 [Bi-ligand, 3]
- Ki [1]: 0.202 µM
- Ki [2]: > 25 µM
- Ki [3]: 12 µM

SMILES: O=C(CN1C(=O)/C(=C/c2ccc(O)c(O)c2)SC1=S)NCCSc1cc(C(=O)O)nc(C(=O)O)c1 [Bi-ligand, 4]
- Ki [1]: 7.9 µM
- Ki [2]: 0.1 µM
- Ki [3]: 0.62 µM
